Each block holds one molecule with its values, some of them ahead of it.
How the values were obtained:
[1] = Half-life of the compound in pH 5.0 phosphate buffer by HPLC analysis; format: physicochemical
[2] = Half-life of the compound in pH 7.4 phosphate buffer by HPLC analysis; format: physicochemical
[3] = Half-life of the compound in 10% rabbit liver homogenate by HPLC analysis; format: ADME, tissue-based, Oryctolagus cuniculus; conditions: 10% liver homogenate
[4] = 1-Octanol/phosphate buffer apparent partition coefficient, logPapp of the compound by shake-flask method; format: physicochemical
[5] = Half-life of the compound in human serum by HPLC analysis; format: ADME, cell-free
[6] = tested on: Human immunodeficiency virus 2; experiment: Antiviral activity against HIV2 infected in human CEM-TK(-) cells assessed as inhibition of viral replication incubated for 4 to 5 days by microscopic analysis; format: functional, organism-based; conditions: Human immunodeficiency virus 2, CEM-TK(-)
[7] = Apparent partition coefficient, logPapp of the compound in pH 7.4 phosphate buffer incubated for 30 mins by HPLC analysis; format: physicochemical
[8] = Half life of the compound in pH 7.0 TEAA buffer; format: physicochemical
[9] = Half life of the compound in RPMI medium; format: physicochemical
[10] = Apparent partition coefficient, logPapp of the compound by HPLC analysis; format: physicochemical; conditions: octanol/water
[11] = 1-Octanol/phosphate buffer apparent partition coefficient, logPapp of the compound at pH 7.4 by shake-flask method; format: physicochemical
[12] = Time for quantitative release of etidronate in 10% rabbit liver homogenate; conditions: 10% liver homogenate
[13] = Half-life of the compound in pH 7.3 PBS buffer; format: physicochemical
[14] = Half-life of the compound in human CEM/0 cell extract at pH 6.9; format: ADME, CCRF-CEM
[15] = tested on: Human immunodeficiency virus 2; experiment: Potency index, ratio of d4T EC50 to test compound EC50 for antiviral activity against HIV2 infected in human CEM-TK(-) cells assessed as inhibition of viral replication incubated for 4 to 5 days by microscopic analysis; format: functional; conditions: time 4-5 day
[16] = Octanol-water partition coefficient, logP of the compound by shake-flask method; format: physicochemical
[17] = Half-life of the compound in pH 2.0 phosphate buffer by HPLC analysis; format: physicochemical
[18] = Half-life of the compound in 80% human serum by HPLC analysis; format: ADME, cell-free; conditions: 80% serum

SMILES: Cc1cn([C@H]2C=C[C@@H](CO)O2)c(=O)[nH]c1=O [STAVUDINE]
- EC50 [6]: 70000 nM

SMILES: O=C(OP(=O)(O)C(Cl)(Cl)P(=O)(O)OC(=O)c1ccccc1)c1ccccc1
- logD at 0.5 h [7]: -2.3

SMILES: CCCCCCCCCCCCCC(=O)OP(=O)(O)OP(=O)(O)OC[C@H]1O[C@@H](n2cc(C)c(=O)[nH]c2=O)C[C@@H]1N=[N+]=[N-]
- half-life [8]: 114 h
- half-life [9]: 1.7 h

SMILES: CC(O)(P(=O)(O)O)P(=O)(O)O [ETIDRONIC ACID]
- time to quantitative release [12]: 3300 min

SMILES: CC(=O)Oc1ccc(COP(=O)(OCc2ccc(OC(C)=O)cc2)OP(=O)(O)OC[C@H]2O[C@@H](n3cc(C)c(=O)[nH]c3=O)C[C@@H]2N=[N+]=[N-])cc1
- half-life [13]: 17 h
- half-life [14]: 2 min

SMILES: CCCCCCCC(=O)Oc1ccc(COP(=O)(OCc2ccc(OC(=O)CCCCCCC)cc2)OP(=O)(O)OC[C@@H]2C=C[C@H](n3cc(C)c(=O)[nH]c3=O)O2)cc1
- EC50 [6]: 2600 nM
- Ratio EC50 [15]: 27

SMILES: COc1ccc(OP(=O)(O)C(O)(c2cccc(Br)c2)P(=O)(O)Oc2ccc(OC)cc2)cc1 (stereo not drawn)
- logP [16]: -0.31

SMILES: CCCC(=O)OP(=O)(O)C(Cl)(Cl)P(=O)(O)OC(=O)CCC
- half-life [2]: 15.2 h
- half-life [17]: 0.75 h
- logD at 0.5 h [7]: -2.3

SMILES: Cc1cn([C@H]2C=C[C@@H](COP(=O)(O)OP(=O)(OCc3ccc(OC(=O)c4ccccc4)cc3)OCc3ccc(OC(=O)c4ccccc4)cc3)O2)c(=O)[nH]c1=O
- EC50 [6]: 850 nM
- Ratio EC50 [15]: 82

SMILES: CC(C)(C)C(=O)OP(=O)(O)C(Cl)(Cl)P(=O)(O)OC(=O)C(C)(C)C
- half-life [18]: 3.3 h
- logD at 0.5 h [7]: -2.3

Other lines, results leading:

- half-life [1]: 252 h
- half-life [2]: 163 h
- half-life [3]: 0.045 h
- logD [4]: 0.6
- half-life [5]: 4.8 h
SMILES: CC(=O)OC(C)(P(=O)(O)OCOC(=O)C(C)(C)C)P(=O)(OCOC(=O)C(C)(C)C)OCOC(=O)C(C)(C)C (stereo not drawn)

- logD [10]: 7.4
SMILES: CC(=O)OC(C)(P(=O)(OCOC(=O)C(C)(C)C)OCOC(=O)C(C)(C)C)P(=O)(OCOC(=O)C(C)(C)C)OCOC(=O)C(C)(C)C

- logD [11]: 1.6
- half-life [1]: > 1 h
- half-life [2]: > 1 h
- half-life [3]: 0.0183 h
SMILES: CC(C)(C)C(=O)OCOP(=O)(O)C(Cl)(Cl)P(=O)(OCOC(=O)C(C)(C)C)OCOC(=O)C(C)(C)C

- half-life [2]: 15.2 h
- half-life [17]: 0.75 h
- logD at 0.5 h [7]: -2.3
SMILES: CC(=O)OP(=O)(O)C(Cl)(Cl)P(=O)(O)OC(C)=O

- logD [11]: 7.4
SMILES: CC(C)(C)C(=O)OCOP(=O)(OCOC(=O)C(C)(C)C)C(Cl)(Cl)P(=O)(OCOC(=O)C(C)(C)C)OCOC(=O)C(C)(C)C

- logD [11]: -2.1
- half-life [3]: 0.233 h
SMILES: CC(C)(C)C(=O)OCOP(=O)(O)C(Cl)(Cl)P(=O)(O)OCOC(=O)C(C)(C)C
